Reference: publication PMC12811658, “Design, Synthesis, and Structural Evolution of Pseudo‐Natural Product IDO1 Inhibitors and Degraders” (Angewandte Chemie (International Ed. in English), 2025)

How the values were obtained:
[1] = system: Kyn levels in BxPC3 cells (kynurenine generated by IDO1); test: Cellular Kyn assay (automated Kyn screening assay); assay type: cell-based; settings: Homo sapiens, BXPC-3, 48 h, IFN-γ, L-Trp and compounds 48 h, mean ± SD, read-out: IC50 (Kyn assay), reduction of kynurenine levels
recombinant human IDO1 = molecular target: T1, recombinant human IDO1 (Homo sapiens, UniProt P14902); test: IDO1 enzymatic assay in vitro; assay type: biochemical; settings: pre-incubation 37 °C 45 min; for inhibition at 14 µM: mean ± SD; for IDO1 activity IC50 [µM] (in vitro assay): determined if inhibition at 14 µM higher than 50%
T1 construct: The GST-tag of IDO1 was removed to obtain untagged full-length IDO1l using PreScission protease; GST (N, cleaved yes); made in house; own inference
T1 sequence (P14902 whole entry): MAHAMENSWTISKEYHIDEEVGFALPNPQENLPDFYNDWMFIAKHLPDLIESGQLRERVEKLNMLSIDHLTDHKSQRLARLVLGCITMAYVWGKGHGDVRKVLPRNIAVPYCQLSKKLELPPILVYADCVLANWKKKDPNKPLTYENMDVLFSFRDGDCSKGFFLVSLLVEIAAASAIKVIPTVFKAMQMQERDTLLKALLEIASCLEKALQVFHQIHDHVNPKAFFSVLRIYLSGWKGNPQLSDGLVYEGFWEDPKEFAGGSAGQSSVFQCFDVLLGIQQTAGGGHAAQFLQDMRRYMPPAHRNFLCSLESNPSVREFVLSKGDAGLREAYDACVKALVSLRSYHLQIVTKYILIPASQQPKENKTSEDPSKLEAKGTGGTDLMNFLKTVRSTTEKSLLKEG

SMILES | IC50 [1] [nM] | inhibition at 14 µM (recombinant human IDO1) [%] | IDO1 activity IC50 [µM] (in vitro assay) (recombinant human IDO1)
Cc1ccc(S(=O)(=O)N2C[C@H]3C[C@H]4C[C@H](C4(C)C)[C@@]3(COC(=O)Nc3ccc(I)cc3)C2)cc1 [compound 68, ((3aS,4R,6R,7aS)-5,5-dimethyl-2-tosyloctahydro-3aH-4,6-methanoisoindol-3a-yl)methyl (4-iodophenyl)carbamate] | 720 ± 270 |  | 
CC1(C)[C@H]2C[C@@H]3CN(S(=O)(=O)c4ccc(C5CCCCC5)cc4)C[C@]3(COC(=O)Nc3ccc(I)cc3)[C@@H]1C2 [compound 71, ((3aS,4R,6R,7aS)-2-((4-cyclohexylphenyl)sulfonyl)-5,5-dimethyloctahydro-3aH-4,6-methanoisoindol-3a-yl)methyl (4-iodophenyl)carbamate] | 1100 ± 300 |  | 
CC1(C)CCC(C)(C)c2cc(S(=O)(=O)N3C[C@H]4C[C@H]5C[C@H](C5(C)C)[C@@]4(COC(=O)Nc4ccc(I)cc4)C3)ccc21 [compound 73, ((3aS,4R,6R,7aS)-5,5-dimethyl-2-((5,5,8,8-tetramethyl-5,6,7,8-tetrahydronaphthalen-2-yl)sulfonyl)octahydro-3aH-4,6-methanoisoindol-3a-yl)methyl (4-iodophenyl)carbamate] | 450 ± 390 |  | 
CC(C)(C)Cc1ccc(S(=O)(=O)N2C[C@H]3C[C@H]4C[C@H](C4(C)C)[C@@]3(COC(=O)Nc3ccc(I)cc3)C2)cc1 [compound 74, ((3aS,4R,6R,7aS)-5,5-dimethyl-2-((4-neopentylphenyl)sulfonyl)octahydro-3aH-4,6-methanoisoindol-3a-yl)methyl (4-iodophenyl)carbamate] | 230 ± 60 |  | 
CCC(C)(C)c1ccc(S(=O)(=O)N2C[C@H]3C[C@H]4C[C@H](C4(C)C)[C@@]3(COC(=O)Nc3ccc(I)cc3)C2)cc1 [compound 75, ((3aS,4R,6R,7aS)-5,5-dimethyl-2-((4-(tert-pentyl)phenyl)sulfonyl)octahydro-3aH-4,6-methanoisoindol-3a-yl)methyl (4-iodophenyl)carbamate] | 190 ± 70 |  | 
CC1(C)[C@H]2C[C@@H]3CN(S(=O)(=O)c4ccc([Si](C)(C)C)cc4)C[C@]3(COC(=O)Nc3ccc(I)cc3)[C@@H]1C2 [compound 77, ((3aS,4R,6R,7aS)-5,5-dimethyl-2-((4-(trimethylsilyl)phenyl)sulfonyl)octahydro-3aH-4,6-methanoisoindol-3a-yl)methyl (4-iodophenyl)carbamate] | 260 ± 90 |  | 
CC(C)(C(=O)N1CCOCC1)c1ccc(S(=O)(=O)N2C[C@H]3C[C@H]4C[C@H](C4(C)C)[C@@]3(COC(=O)Nc3ccc(I)cc3)C2)cc1 [compound 86, ((3aS,4R,6R,7aS)-5,5-dimethyl-2-((4-(2-methyl-1-morpholino-1-oxopropan-2-yl)phenyl)sulfonyl)octahydro-3aH-4,6-methanoisoindol-3a-yl)methyl (4-iodophenyl)carbamate] | 7300 ± 1400 |  | 
CN(C)C(=O)C(C)(C)c1ccc(S(=O)(=O)N2C[C@H]3C[C@H]4C[C@H](C4(C)C)[C@@]3(COC(=O)Nc3ccc(I)cc3)C2)cc1 [compound 87, ((3aS,4R,6R,7aS)-2-((4-(1-(dimethylamino)-2-methyl-1-oxopropan-2-yl)phenyl)sulfonyl)-5,5-dimethyloctahydro-3aH-4,6-methanoisoindol-3a-yl)methyl (4-iodophenyl)carbamate] | 850 ± 270 |  | 
CN(C)CC(C)(C)c1ccc(S(=O)(=O)N2C[C@H]3C[C@H]4C[C@H](C4(C)C)[C@@]3(COC(=O)Nc3ccc(I)cc3)C2)cc1 [compound 88, ((3aS,4R,6R,7aS)-2-((4-(1-(dimethylamino)-2-methylpropan-2-yl)phenyl)sulfonyl)-5,5-dimethyloctahydro-3aH-4,6-methanoisoindol-3a-yl)methyl (4-iodophenyl)carbamate] | 2500 ± 100 |  | 
CCOC(=O)C(C)(C)c1ccc(S(=O)(=O)N2C[C@H]3C[C@H]4C[C@H](C4(C)C)[C@@]3(COC(=O)Nc3ccc(I)cc3)C2)cc1 [compound 89, Ethyl 2-(4-(((3aS,4R,6R,7aS)-3a-((((4-iodophenyl)carbamoyl)oxy)methyl)-5,5-dimethyloctahydro-2H-4,6-methanoisoindol-2-yl)sulfonyl)phenyl)-2-methylpropanoate] | 250 ± 80 |  | 
COC(=O)C(C)(C)c1ccc(S(=O)(=O)N2C[C@H]3C[C@H]4C[C@H](C4(C)C)[C@@]3(COC(=O)Nc3ccc(I)cc3)C2)c(Cl)c1 [compound 94, Methyl 2-(3-chloro-4-(((3aS,4R,6R,7aS)-3a-((((4-iodophenyl)carbamoyl)oxy)methyl)-5,5-dimethyloctahydro-2H-4,6-methanoisoindol-2-yl)sulfonyl)phenyl)-2-methylpropanoate] | 43 ± 24 | < 25 | – (Inactive: >75% Kyn level observed up to a concentration of 14 µM and no IC50 value obtained)

Now from value to compound, other results behind:

IC50 [1] [nM] | inhibition at 14 µM (recombinant human IDO1) [%] | SMILES | IDO1 activity IC50 [µM] (in vitro assay) (recombinant human IDO1)
1100 ± 500 |  | Cc1cccc(S(=O)(=O)N2C[C@H]3C[C@H]4C[C@H](C4(C)C)[C@@]3(COC(=O)Nc3ccc(I)cc3)C2)c1 [compound 67, ((3aS,4R,6R,7aS)-5,5-dimethyl-2-(m-tolylsulfonyl)octahydro-3aH-4,6-methanoisoindol-3a-yl)methyl (4-iodophenyl)carbamate] | 
140 ± 20 |  | CC(C)c1ccc(S(=O)(=O)N2C[C@H]3C[C@H]4C[C@H](C4(C)C)[C@@]3(COC(=O)Nc3ccc(I)cc3)C2)cc1 [compound 69, ((3aS,4R,6R,7aS)-2-((4-isopropylphenyl)sulfonyl)-5,5-dimethyloctahydro-3aH-4,6-methanoisoindol-3a-yl)methyl (4-iodophenyl)carbamate] | 
340 ± 170 |  | CC1(C)[C@H]2C[C@@H]3CN(S(=O)(=O)c4ccc(-c5ccccc5)cc4)C[C@]3(COC(=O)Nc3ccc(I)cc3)[C@@H]1C2 [compound 70, ((3aS,4R,6R,7aS)-2-([1,1'-biphenyl]-4-ylsulfonyl)-5,5-dimethyloctahydro-3aH-4,6-methanoisoindol-3a-yl)methyl (4-iodophenyl)carbamate] | 
> 10000 |  | CC(C)(C)c1ccc(-c2ccc(S(=O)(=O)N3C[C@H]4C[C@H]5C[C@H](C5(C)C)[C@@]4(COC(=O)Nc4ccc(I)cc4)C3)cc2)cc1 [compound 76, ((3aS,4R,6R,7aS)-2-((4'-(tert-butyl)-[1,1'-biphenyl]-4-yl)sulfonyl)-5,5-dimethyloctahydro-3aH-4,6-methanoisoindol-3a-yl)methyl (4-iodophenyl)carbamate] | 
32 ± 11 |  | COC(=O)CC(C)(C)c1ccc(S(=O)(=O)N2C[C@H]3C[C@H]4C[C@H](C4(C)C)[C@@]3(COC(=O)Nc3ccc(I)cc3)C2)cc1 [compound 90, Methyl 3-(4-(((3aS,4R,6R,7aS)-3a-((((4-iodophenyl)carbamoyl)oxy)methyl)-5,5-dimethyloctahydro-2H-4,6-methanoisoindol-2-yl)sulfonyl)phenyl)-3-methylbutanoate] | 
73 ± 41 | < 25 | COC(=O)C(C)(C)c1ccc(S(=O)(=O)N2C[C@H]3C[C@H]4C[C@H](C4(C)C)[C@@]3(COC(=O)Nc3ccc(I)cc3)C2)c(OC)c1 [compound 93, Methyl 2-(4-(((3aS,4R,6R,7aS)-3a-((((4-iodophenyl)carbamoyl)oxy)methyl)-5,5-dimethyloctahydro-2H-4,6-methanoisoindol-2-yl)sulfonyl)-3-methoxyphenyl)-2-methylpropanoate] | – (Inactive: >75% Kyn level observed up to a concentration of 14 µM and no IC50 value obtained)
